In patent US20260027220A1, “EPHA2 BCL-XL INHIBITOR ANTIBODY-DRUG CONJUGATES AND METHODS OF USE THEREOF” (Novartis AG, priority 2022, published 2026):
Values joined by “and” are separate entries in the source; they are usually repeats but may differ in a detail not shown here. Equal values may be shown once. One block for each molecule: values may come before it.

Experiments:
[1] = system: Panc03.27 xenografts; assay: Panc03.27 xenograft efficacy, combination with gemcitabine (Table 15, FIG. 3); assay type: in vivo, mice; conditions: Gemcitabine 100 mg/kg IP q3dx3 alone
Protocol: (§1) EBC-1 cells were cultured at 37° C. (atmosphere of 5% CO2) in DMEM medium (Gibco 11965-084) supplemented with 10% FBS (HI-FBS #134K19, Tet-free). Panc03.27 cells were cultured at 37° C. (atmosphere of 5% CO2) in RPMI-1640 medium (Gibco 11875-085) supplemented with 15% FBS and 10 units/mL recombinant human insulin. Treatment with 0.25% Trypsin (Gibco 25200-056) was used for sub-culturing. To establish EBC-1 and Panc03.27 xenografts, cells were harvested and re-suspended in a 1:1 v/v mixture of phosphate buffered saline and Matrigel. A total of 5×10^6 EBC-1 cells and 10×10^6 Panc03.27 cells were injected subcutaneously in the flanks of female nude mice (Charles River, USA) in a volume of 200 μL. Tumor growth was monitored regularly post cell inoculation, and animals were randomized into treatment groups (n=8) with a mean tumor volume of about 200 mm^3.
(§2) For EBC-1 efficacy studies, EphA2-DANAPA-L11C-P25 ADC, 3207-DANAPA-L11C-P25 isotype control ADC, and EphA2-DANAPA CysMab control antibody were all dosed in combination with paclitaxel (LC Laboratories, Woburn, MA, Cat #: P-9600), as indicated in FIG. 1 and FIG. 2. For Panc03.27 efficacy studies, EphA2-DANAPA-L11C-P25 ADC, 3207-DANAPA-L11C-P25 isotype control ADC, and EphA2-DANAPA CysMab control antibody were all dosed in combination with either gemcitabine (Hospira, NDC Code 0409-0185-01) or the MAPK inhibitors (MAPKi) LXH254 and CFF272, as indicated in FIG. 3 and FIG. 4 respectively. […]
(§3) Tumor volume data were analyzed for statistical significance relative to the EphA2-DANAPA-L11C-P25 ADC combination groups. […]
(§4) As a measure of efficacy, % T/C values were calculated according to the following formula: (Δtumor volume in experimental group/Δtumor volume in vehicle control group)*100. Tumor regression was calculated according to the following formula: (Δtumor volume in experimental group/tumor volume in experimental group at start)*100. Δtumor volumes represent mean tumor volumes on the measurement day minus the mean tumor volume at the start of treatment. […]

[2] = system: aspc1; assay: CellTiter-Glo proliferation assay, aspc1; assay type: cell-based; conditions: single agent, 5 days of treatment
Protocol: (§5) EphA2-L11A-P21 antibody drug conjugate (ADC) alone or in combination with Trametinib were tested against cancer cell lines obtained from ATCC (American Type Culture Collection) or from other commercial cell line vendors. EphA2-L11A-P21 ADC was prepared according to any of the conjugation methods described herein. The cells were cultured in media that is optimal for their growth at 5% CO2, 37° C. in a tissue culture incubator. Prior to seeding for the proliferation assay, the cells were split at least 2 days before the assay to ensure optimal growth density. On the day of seeding, cells were lifted off tissue culture flasks using 0.25% trypsin. Cell viability and cell density were determined using a cell counter (Vi-Cell XR Cell Viability Analyzer, Beckman Coulter). […]
(§6) The ADCs were prepared in standard phosphate buffered solution to desired concentrations. […] The ability of the ADCs to inhibit cell proliferation and survival was assessed using the Promega CellTiter-Glo® proliferation assay. Plates were incubated at room temperature for 20 minutes to stabilize luminescent signals prior to reading using a multimode plate reader (Pherastar, BMG). Luminescent counts of untreated cells were taken the day after seeding (Day 0 readings), and after 5 days of treatment (Day 5 readings). The Day 5 readings of the untreated cells were compared to the Day 0 readings. […]

[3] = system: capan2; assay: CellTiter-Glo proliferation assay, capan2; assay type: cell-based; conditions: single agent, 5 days of treatment
Protocol: as §5, §6

[4] = system: dv90; assay: CellTiter-Glo proliferation assay, dv90; assay type: cell-based; conditions: single agent, 5 days of treatment
Protocol: as §5, §6

[5] = system: ebc1; assay: CellTiter-Glo proliferation assay, ebc1; assay type: cell-based; conditions: single agent, 5 days of treatment
Protocol: as §5, §6

[6] = system: hcc1143; assay: CellTiter-Glo proliferation assay, hcc1143; assay type: cell-based; conditions: single agent, 5 days of treatment
Protocol: as §5, §6

[7] = system: jhom2b; assay: CellTiter-Glo proliferation assay, jhom2b; assay type: cell-based; conditions: single agent, 5 days of treatment
Protocol: as §5, §6

[8] = system: ncin87; assay: CellTiter-Glo proliferation assay, ncin87; assay type: cell-based; conditions: single agent, 5 days of treatment
Protocol: as §5, §6

[9] = system: ocum1; assay: CellTiter-Glo proliferation assay, ocum1; assay type: cell-based; conditions: single agent, 5 days of treatment
Protocol: as §5, §6

[10] = system: panc0327; assay: CellTiter-Glo proliferation assay, panc0327; assay type: cell-based; conditions: single agent, 5 days of treatment
Protocol: as §5, §6

[11] = system: skhep1; assay: CellTiter-Glo proliferation assay, skhep1; assay type: cell-based; conditions: single agent, 5 days of treatment
Protocol: as §5, §6

[12] = system: skmel31; assay: CellTiter-Glo proliferation assay, skmel31; assay type: cell-based; conditions: single agent, 5 days of treatment
Protocol: as §5, §6

[13] = system: sw403; assay: CellTiter-Glo proliferation assay, sw403; assay type: cell-based; conditions: single agent, 5 days of treatment
Protocol: as §5, §6

[14] = system: EBC-1 xenografts; assay: EBC-1 xenograft efficacy, combination with paclitaxel (Table 13, FIG. 1); assay type: in vivo, mice; conditions: Paclitaxel 12.5 mg/kg SD IV alone; Day 12
Protocol: as §1, §2, §3, §4

[15] = system: EBC-1 xenografts; assay: EBC-1 xenograft efficacy, ADC dose reduction alone or with paclitaxel (Table 14, FIG. 2); assay type: in vivo, mice; conditions: Paclitaxel 12.5 mg/kg SD IV alone
Protocol: as §1, §2, §3, §4

[16] = biological target: T1, human EphA2 ectodomain (human, UniProt P29317 24-537); assay: SPR (Biacore 8k), Fab-capture, 37C, 1:1 model;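 further: Anti-EphA2 IgG captured via immobilized anti-Fab, soluble EphA2 ectodomain as analyte at six twofold dilutions from 50 nM, HBS-EP+ pH 7.6 running buffer, double reference subtraction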
T1 construct: Soluble ectodomain used as the SPR analyte
T1 sequence (P29317 24-537 limits assumed): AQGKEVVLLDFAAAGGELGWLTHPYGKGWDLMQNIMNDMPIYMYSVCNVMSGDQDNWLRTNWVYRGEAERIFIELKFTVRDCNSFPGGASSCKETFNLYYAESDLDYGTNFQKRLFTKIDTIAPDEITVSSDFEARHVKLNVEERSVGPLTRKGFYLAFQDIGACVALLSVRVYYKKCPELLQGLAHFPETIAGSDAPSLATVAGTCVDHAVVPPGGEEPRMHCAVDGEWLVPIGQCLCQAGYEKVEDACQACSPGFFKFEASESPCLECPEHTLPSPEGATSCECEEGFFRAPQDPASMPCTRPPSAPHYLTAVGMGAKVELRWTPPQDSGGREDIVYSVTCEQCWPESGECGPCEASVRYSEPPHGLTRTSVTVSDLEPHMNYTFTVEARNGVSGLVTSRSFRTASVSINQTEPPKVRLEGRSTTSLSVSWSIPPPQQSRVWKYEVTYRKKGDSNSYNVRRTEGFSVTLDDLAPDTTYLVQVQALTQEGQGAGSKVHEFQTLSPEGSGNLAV
Protocol: (§7) A human Fab capture method was utilized in order to determine kinetics for the antibodies. […] Each channel has two flow cells. The reference flow cell contained only immobilized anti-Fab, whereas the reaction flow cell captured anti-EphA2 IgG through anti-Fab. HBS-EP+ Buffer, pH 7.6 was used as the running buffer. The soluble human, mouse and cyno EphA2 ectodomain flowed over both flow cells on 8 channels. The EphA2 ectodomain concentration started at 50 nM and was serially diluted at one part to one part (1:1) in the running buffer for six concentrations. The analysis chamber was kept at 37° C. Regeneration was performed at the end of each sample washing with the solution of 10 mM Glycine-HCl, pH 2.1 provided in the kit.
(§8) The data were analysed using the Biacore Insight Evaluation Software. Double reference subtraction was completed to generate the final data. The raw data was fitted to a 1:1 binding model, with parameter(s) Rₘₐₓ set to local.

[17] = biological target: T2, mouse EphA2 ectodomain (mouse, UniProt Q03145 26-538); assay: SPR (Biacore 8k), Fab-capture, 37C, 1:1 model;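 further: Anti-EphA2 IgG captured via immobilized anti-Fab, soluble EphA2 ectodomain as analyte at six twofold dilutions from 50 nM, HBS-EP+ pH 7.6 running buffer, double reference subtraction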
T2 construct: extracellular domain
T2 sequence (Q03145 26-538): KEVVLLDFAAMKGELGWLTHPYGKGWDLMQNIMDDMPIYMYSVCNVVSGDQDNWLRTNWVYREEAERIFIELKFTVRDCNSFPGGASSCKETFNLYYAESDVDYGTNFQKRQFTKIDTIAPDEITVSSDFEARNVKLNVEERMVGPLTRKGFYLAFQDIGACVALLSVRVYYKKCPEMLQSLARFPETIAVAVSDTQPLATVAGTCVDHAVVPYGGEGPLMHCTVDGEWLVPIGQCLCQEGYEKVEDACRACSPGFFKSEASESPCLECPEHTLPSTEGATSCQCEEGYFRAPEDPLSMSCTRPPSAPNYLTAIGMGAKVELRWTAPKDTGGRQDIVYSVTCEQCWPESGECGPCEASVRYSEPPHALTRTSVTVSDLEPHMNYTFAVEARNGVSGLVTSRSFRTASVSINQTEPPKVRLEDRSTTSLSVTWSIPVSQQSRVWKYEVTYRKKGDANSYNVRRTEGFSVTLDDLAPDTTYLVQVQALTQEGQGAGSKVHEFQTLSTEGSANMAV
Protocol: as §7, §8

[18] = biological target: T3, cyno EphA2 ectodomain (cyno, UniProt Q1KL86 25-537); assay: SPR (Biacore 8k), Fab-capture, 37C, 1:1 model;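 further: Anti-EphA2 IgG captured via immobilized anti-Fab, soluble EphA2 ectodomain as analyte at six twofold dilutions from 50 nM, HBS-EP+ pH 7.6 running buffer, double reference subtraction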
T3 construct: extracellular domain
T3 sequence (Q1KL86 25-537): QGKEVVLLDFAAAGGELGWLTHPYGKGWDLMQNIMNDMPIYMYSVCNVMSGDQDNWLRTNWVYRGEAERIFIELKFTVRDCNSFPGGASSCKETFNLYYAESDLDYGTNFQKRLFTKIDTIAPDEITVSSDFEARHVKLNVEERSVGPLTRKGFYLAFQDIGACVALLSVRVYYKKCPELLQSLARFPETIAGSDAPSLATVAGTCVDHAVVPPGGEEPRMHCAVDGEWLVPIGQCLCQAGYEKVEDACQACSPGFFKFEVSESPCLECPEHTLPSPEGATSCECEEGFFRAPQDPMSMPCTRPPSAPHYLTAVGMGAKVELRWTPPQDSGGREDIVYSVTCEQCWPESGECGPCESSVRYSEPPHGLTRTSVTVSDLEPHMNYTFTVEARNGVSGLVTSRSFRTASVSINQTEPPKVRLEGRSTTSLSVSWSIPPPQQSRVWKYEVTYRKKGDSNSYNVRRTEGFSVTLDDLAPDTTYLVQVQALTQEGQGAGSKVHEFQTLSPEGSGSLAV
Protocol: as §7, §8

[19] = biological target: T4, human EphA2 expressed on HKB-11 cells (human, UniProt P29317 24-976); assay: KinExA avid equilibrium KD on cells, average of replicates
T4 construct: The HKB-11 cells were transduced to overexpress EphA2; also called HKB-11 EphA2+ cell line
T4 sequence (P29317 24-976 limits assumed): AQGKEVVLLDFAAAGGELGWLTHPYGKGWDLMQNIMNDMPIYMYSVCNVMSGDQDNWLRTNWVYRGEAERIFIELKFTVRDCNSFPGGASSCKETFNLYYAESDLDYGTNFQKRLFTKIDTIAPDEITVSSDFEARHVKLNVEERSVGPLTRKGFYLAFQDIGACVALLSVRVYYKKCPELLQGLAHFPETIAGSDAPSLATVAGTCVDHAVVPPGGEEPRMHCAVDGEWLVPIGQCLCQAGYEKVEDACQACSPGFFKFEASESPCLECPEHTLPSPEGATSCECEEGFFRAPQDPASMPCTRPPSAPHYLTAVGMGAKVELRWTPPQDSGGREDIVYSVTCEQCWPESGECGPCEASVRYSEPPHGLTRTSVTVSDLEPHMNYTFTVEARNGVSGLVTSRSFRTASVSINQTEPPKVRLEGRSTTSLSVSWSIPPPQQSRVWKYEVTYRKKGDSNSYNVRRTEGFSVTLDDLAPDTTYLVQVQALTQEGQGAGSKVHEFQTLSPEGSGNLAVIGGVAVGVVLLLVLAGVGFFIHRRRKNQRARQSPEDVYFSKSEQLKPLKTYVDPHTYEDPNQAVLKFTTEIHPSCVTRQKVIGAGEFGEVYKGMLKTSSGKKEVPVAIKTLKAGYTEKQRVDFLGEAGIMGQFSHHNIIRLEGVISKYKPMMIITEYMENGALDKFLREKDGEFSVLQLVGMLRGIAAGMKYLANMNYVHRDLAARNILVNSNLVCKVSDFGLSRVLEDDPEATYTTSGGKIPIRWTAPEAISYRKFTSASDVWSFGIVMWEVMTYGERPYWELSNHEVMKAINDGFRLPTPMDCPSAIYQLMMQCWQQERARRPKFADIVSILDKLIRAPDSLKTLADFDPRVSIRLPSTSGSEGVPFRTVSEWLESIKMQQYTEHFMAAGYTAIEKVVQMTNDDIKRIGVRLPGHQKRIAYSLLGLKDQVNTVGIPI
Protocol: (§9) Free antibody in equilibrium titration reactions were measured by KinExA using a KinExA 3200, Autosampler (Sapidyne). Data were analyzed using KinExA Pro 4-5-X (Sapidyne).
(§10) Anti-EphA2 antibody was diluted in PBS with 10% HI-FBS and 0.04% sodium azide to 2× the final concentration of binding sites needed for equilibrium titration. […] Cells and antibody were combined 1:1 in an eppendorf tube and incubated overnight, 4° C., rotating. Buffer and antibody alone samples were included. Cells were pelleted and supernatants were transferred to a 2 ml 96-well deep well plate covered with pierceable film.
Data were analyzed by n-Curve Analysis.

[20] = biological target: T4, human EphA2 expressed on HKB-11 cells; assay: KinExA apparent (avid) equilibrium KD on human EphA2 HKB-11 cells
Protocol: as §9, §10
Data were analyzed by n-Curve Analysis.

[21] = biological target: T4, human EphA2 expressed on HKB-11 cells; assay: flow cytometry on HKB-11 cells overexpressing EphA2; lot DE-54-AX20
Protocol: (§11) The binding affinity of EphA2 antibodies on cells was evaluated using flow cytometry (FACS). […] Cell lines were cultured in media that is optimal for their growth at 5% CO₂, 37° C. in a tissue culture incubator. Cell viability and cell density were determined using a cell counter (Vi-Cell XR Cell Viability Analyzer, Beckman Coulter). […] All subsequent steps were performed on ice and in ice cold FACS buffer to prevent internalization of the receptor. Cells were resuspended in 100 μL of FACS buffer containing an 11-point serial dilution of test antibodies at final concentrations of 200 nM-0.003 nM. Cells were incubated at 4° C. for 45 minutes. Following incubation, cells were washed three times in ice cold PBS at 1000 rpm for 5 minutes with 200 μL FACS buffer. […] Cells were incubated in the dark at 4° C. for 45 minutes. Following incubation, cells were washed three times in ice cold PBS at 1000 rpm for 5 minutes with 200 μL FACS buffer. Cells were then resuspended in 100 μL FACS buffer containing DAPI (ThermoFisher, #D1306) staining followed by readout via flow cytometry (MACSQuant® Analyzer 10). Data was analyzed using FlowJo v10.8.1 to obtain MFI (Mean Fluorescence Intensity) on live cells. EC₅₀ values were calculated using the GraphPad Prism 9 software. There were three rounds of experiments performed to evaluate three groupings of EphA2 antibodies. […]

[22] = biological target: T4, human EphA2 expressed on HKB-11 cells; assay: flow cytometry on HKB-11 cells overexpressing EphA2; lot VE-39-AK34
Protocol: as §11

[23] = biological target: T4, human EphA2 expressed on HKB-11 cells; assay: FACS titration on HKB-11 cells transduced to overexpress EphA2 (200 to 0.003 nM antibody, Alexa Fluor 647 anti-human IgG, MFI of live cells)
Protocol: as §11

Molecule: Nc1ccn([C@@H]2O[C@H](CO)[C@@H](O)C2(F)F)c(=O)n1 [Gemcitabine]
% T/C ([1]; Day 11): 31% | ΔTumor volume (mm^3 ± SEM) ([1]; Day 11): 153 ± 39 mm^3 | Complete Responders ([1]; Day 34): 0/8

Molecule: Cc1c(Nc2nc3ccccc3s2)nnc2c1CCCN2c1ccc(-c2cnn(C[C@]34C[C@]5(C)C[C@](C)(C3)C[C@@](OCCN3CCCC3)(C5)C4)c2C)c(C(=O)O)n1 [P21, 6-[3-(1,3-benzothiazol-2-ylamino)-4-methyl-6,7-dihydro-5H-pyrido[2,3-c]pyridazin-8-yl]-3-[1-[[3,5-dimethyl-7-(2-pyrrolidin-1-ylethoxy)-1-adamantyl]methyl]-5-methyl-pyrazol-4-yl]pyridine-2-carboxylic acid]
GI50 ([2]; Homo sapiens, 120 h): 42.2 nM | GI Amax [2]: 2.18 | GI50 ([3]; Homo sapiens, Capan-2, 120 h): 4.38 nM | GI Amax [3]: −81.72 | GI50 ([4]; Homo sapiens, DV-90, 120 h): 266 nM | GI Amax [4]: 16.76 | GI50 ([5]; Homo sapiens, EBC-1, 120 h): 0.26 nM | GI Amax [5]: −96.78 | GI50 ([6]; Homo sapiens, 120 h): 0.99 nM | GI Amax [6]: −43.38 | GI50 ([7]; 120 h): 68.8 nM | GI Amax [7]: −27.63 | GI50 ([8]; Homo sapiens, NCI-N87, 120 h): 0.77 nM | GI Amax [8]: −29.31 | GI50 ([9]; 120 h): 0.49 nM | GI Amax [9]: −94.77 | GI50 ([10]; Homo sapiens, PANC-03-27, 120 h): 2.35 nM | GI Amax [10]: −79.2 | GI50 ([11]; Homo sapiens, SK-HEP1, 120 h): 0.05 nM | GI Amax [11]: −75.34 | GI50 ([12]; 120 h): 0.05 nM | GI Amax [12]: −56.5 | GI50 ([13]; Homo sapiens, SW-403, 120 h): 5.32 nM | GI Amax [13]: −64.33

Molecule: CC(=O)O[C@H]1C(=O)[C@@]2(C)[C@H]([C@H](OC(=O)c3ccccc3)[C@]3(O)C[C@H](OC(=O)[C@H](O)[C@@H](NC(=O)c4ccccc4)c4ccccc4)C(C)=C1C3(C)C)[C@]1(OC(C)=O)CO[C@@H]1C[C@@H]2O [Paclitaxel, paclitaxel]
% T/C [14]: 46% | Complete Responders [14]: 0/8 | ΔTumor volume (mm^3 ± SEM) [14]: 687 ± 224 mm^3 | % T/C ([15]; Day 14): 71% | ΔTumor volume (mm^3 ± SEM) ([15]; Day 14): 649 ± 97 mm^3 | Complete Responders ([15]; Day 16): 0/8

Other lines, results leading:

Kd [16]: 196 nM | koff [16]: 0.0531 s⁻¹ | kon [16]: 271000 M⁻¹ s⁻¹ | Kd [17]: 385 nM | koff [17]: 0.0661 s⁻¹ | kon [17]: 172000 M⁻¹ s⁻¹ | Kd [18]: 230 nM | koff [18]: 0.0719 s⁻¹ | kon [18]: 313000 M⁻¹ s⁻¹ | Kd [19]: 0.114 nM | Kd [20]: 0.089 nM and 0.138 nM | EC50 [21]: 3.83 nM | EC50 [22]: 1.95 nM
B1: anti-EphA2 E152C S375C 1C1 (LC N92Q) hIgG1 (WT Heavy Chain) (antibody, V domains shown)
VH: EVQLLESGGGLVQPGGSLRLSCAASGFTFSHYMMAWVRQAPGKGLEWVSRIGPSGGPTHYADSVKGRFTISRDNSKNTLYLQMNSLRAEDTAVYYCAGYDSGYDYVAVAGPAEYFQHWGQGTLVTVSS
VL: DIQMTQSPSSLSASVGDRVTITCRASQSISTWLAWYQQKPGKAPKLLIYKASNLHTGVPSRFSGSGSGTEFSLTISGLQPDDFATYYCQQYQSYSRTFGQGTKVEIKR
notes: also called 1C1 N92Q IgG; DE-54-AX20

binding result [23]: no binding (tested: 200 nM)
B2: 3207 (antibody, V domains shown)
VH: QVQLQQSGPGLVKPSQTLSLTCAISGDSVSSNSAAWSWIRQSPGRGLEWLGRIYYRSKWYNDYAVSVKSRITINPDTSKNQFSLQLNSVTPEDTAVYYCARLDHRYHEDTVYPGMDVWGQGTLVTVSS
VL: DIELTQPPSVSVAPGQTARISCSGDNLPAYTVTWYQQKPGQAPVLVIYDDSDRPSGIPERFSGSNSGNTATLTISGTQAEDEADYYCASWDPSSGVVFGGGTKLTVL
notes: the legend prints only '3207'; also called IgG (3207); IgG anti-chicken lysozyme antibody
